Laboratory results taken from US8653023B1, “Dual beneficial effect of dopamine enhancing and neuroprotective actions of PKC delta inhibitors for treatment of Parkinson's disease” (Iowa State University Research Foundation, Inc., priority 2006, dated 2014).
Where two headings read alike, the source gives them in different places. * marks the point of attachment. Cbz = O=C(OCc1ccccc1)*; CH2F = FC*

Experiments:
[1] = tested on: dopaminergic neuronal cells; test: MPP+ induced DNA fragmentation (genomic DNA fragmentation assay); format: cell-based
Excerpt: (§1) The ability of a PKCd inhibitor to decrease PKCd activity, for example, neurodegeneration or apoptotic activity, can be assessed using standard techniques known to one skilled in the art, including commercially available assays. These include apoptotic DNA Ladder assays, Cell Death Detection ELISA^PLUS (from Roche Applied Sciences), Caspase-3 Activity Assay^PLUS (from Roche Applied Sciences), terminal deoxynucleotidyl transferase-mediated dUTP [deoxy-uridine triphosphate] nick end labeling (TUNEL) assays. DNA-binding dyes or stains such as […] or DAPI or propidium iodide may be used to assess nuclear morphology and DNA damage. Kaul S, Kanthasamy A, Kitazawa M, Anantharam V, Kanthasamy A G, Caspase-3 dependent proteolytic activation of protein kinase C delta mediates and regulates 1-methyl-4-phenylpyridinium (MPP^+)-induced apoptotic cell death in dopaminergic cells: relevance to oxidative stress in dopaminergic degeneration. Eur J Neurosci. 2003 September; 18(6):1387-401.

[2] = tested on: dopaminergic neuronal cells; test: 6-OHDA-induced DNA fragmentation (genomic DNA fragmentation assay); format: cell-based
Excerpt: as §1

Substance: N-benzyloxycarbonyl-Asp(OMe)-Ile-Pro-Asp(OMe)-FMK (Cbz-D(OMe)IPD(OMe)-CH2F; SMILES CC[C@H](C)[C@H](NC(=O)[C@H](CC(=O)OC)NC(=O)OCc1ccccc1)C(=O)N1CCC[C@H]1C(=O)N[C@@H](CC(=O)OC)C(=O)CF; listed as Homo sapiens)
- MPP+ induced DNA fragmentation [1]: inhibited
- 6-OHDA-induced DNA fragmentation [2]: effectively blocked
- 6-OHDA-induced DNA fragmentation ([2]; concentration as low as 3 μM): almost completely inhibits
